Source: ChEMBL document CHEMBL4411307, “N,N'-diaryl-bishydrazones in a biphenyl platform: Broad spectrum antifungal agents” (Eur J Med Chem, 2019)
Converted amounts (≈) assume the structure as drawn. The source made the active and inactive calls. The rule behind the calls is not given here.

Assays:
[1] = Selectivity index, ratio of CC50 for human A549 cells to MIC for fluconazole/ITC-resistant Candida albicans ATCC MYA-1003; assay type: toxicity; conditions: read-out: Selectivity Index
[2] = Selectivity index, ratio of CC50 for human A549 cells to MIC for fluconazole/ITC-resistant Candida albicans ATCC MYA-1237; assay type: toxicity; conditions: read-out: Selectivity Index
A549 = test: Cytotoxicity against human A549 cells after 24 hrs by resazurin based assay; assay type: cell-based; conditions: a549, 24 h
[3] = Selectivity index, ratio of compound concentration showing <20 to <30% hemolysis in mouse RBC to MIC for Aspergillus terreus ATCC MYA-3633; assay type: toxicity; conditions: mouse red blood cells (RBC), read-out: Selectivity Index
[4] = Selectivity index, ratio of compound concentration showing <20 to <30% hemolysis in mouse RBC to MIC for fluconazole/ITC-susceptible Candida albicans ATCC MYA-2876; assay type: toxicity; conditions: red blood cells (erythrocytes), read-out: Selectivity Index
[5] = Selectivity index, ratio of compound concentration showing <20 to <30% hemolysis in mouse RBC to MIC for Candida parapsilosis ATCC 22019; assay type: toxicity; conditions: mouse red blood cells (RBC), read-out: Selectivity Index
[6] = Selectivity index, ratio of compound concentration showing <20 to <30% hemolysis in mouse RBC to MIC for fluconazole/ITC-resistant Candida albicans ATCC MYA-1237; assay type: toxicity; conditions: mouse red blood cells (RBC), read-out: Selectivity Index
Listeria monocytogenes = test: Antibacterial activity against Listeria monocytogenes; assay type: functional, organism-based
[7] = Selectivity index, ratio of compound concentration showing <20 to <30% hemolysis in mouse RBC to MIC for Aspergillus nidulans ATCC 38163; assay type: toxicity; conditions: mouse red blood cells (RBC), read-out: Selectivity Index
[8] = Hemolytic activity in mouse RBC at 3.9 ug/ml after 1 hr relative to control; assay type: ADME, cell-based, Erythrocyte; conditions: red blood cells (erythrocytes), read-out: Activity
[9] = Selectivity index, ratio of CC50 for human A549 cells to MIC for fluconazole/ITC-susceptible Candida albicans ATCC MYA-2310; assay type: toxicity; conditions: read-out: Selectivity Index
Candida albicans [10] = test: Antifungal activity against fluconazole/ITC-resistant Candida albicans ATCC 10231 measured after 48 hrs by CLSI M27-A3 protocol based method; assay type: functional; conditions: ATCC 10231, 48 h
Nakaseomyces glabratus = test: Antifungal activity against Candida glabrata ATCC 2001 measured after 48 hrs by CLSI M27-A3 protocol based method; assay type: functional; conditions: CBS 138, 48 h
[11] = Selectivity index, ratio of CC50 for human A549 cells to MIC for Candida glabrata ATCC 2001; assay type: toxicity; conditions: read-out: Selectivity Index
[12] = Hemolytic activity in mouse RBC at 7.8 ug/ml after 1 hr relative to control; assay type: ADME, cell-based, Erythrocyte; conditions: red blood cells (erythrocytes), read-out: Activity
Pichia kudriavzevii = test: Antifungal activity against Candida krusei ATCC 6258 measured after 48 hrs by CLSI M27-A3 protocol based method; assay type: functional; conditions: ATCC 6258, 48 h
[13] = Hemolytic activity in mouse RBC at 31.3 ug/ml after 1 hr relative to control; assay type: ADME, cell-based, Erythrocyte; conditions: red blood cells (erythrocytes), read-out: Activity
Candida albicans [14] = test: Antifungal activity against fluconazole/ITC-susceptible Candida albicans ATCC MYA-2876 measured after 48 hrs by CLSI M27-A3 protocol based method; assay type: functional; conditions: ATCC MYA-2876, 48 h
Enterococcus = test: Antibacterial activity against vancomycin-resistant Enterococcus; assay type: functional, organism-based
[15] = Selectivity index, ratio of CC50 for human A549 cells to MIC for Aspergillus terreus ATCC MYA-3633; assay type: toxicity; conditions: read-out: Selectivity Index
[16] = target: Voltage-gated inwardly rectifying potassium channel KCNH2 (Homo sapiens, UniProt Q12809); test: Inhibition of [3H]-dofetilide binding to human ERG expressed in HEK293 cell membranes measured after 1 hr by liquid scintillation counting method
Chain of Voltage-gated inwardly rectifying potassium channel KCNH2 (Q12809 whole entry): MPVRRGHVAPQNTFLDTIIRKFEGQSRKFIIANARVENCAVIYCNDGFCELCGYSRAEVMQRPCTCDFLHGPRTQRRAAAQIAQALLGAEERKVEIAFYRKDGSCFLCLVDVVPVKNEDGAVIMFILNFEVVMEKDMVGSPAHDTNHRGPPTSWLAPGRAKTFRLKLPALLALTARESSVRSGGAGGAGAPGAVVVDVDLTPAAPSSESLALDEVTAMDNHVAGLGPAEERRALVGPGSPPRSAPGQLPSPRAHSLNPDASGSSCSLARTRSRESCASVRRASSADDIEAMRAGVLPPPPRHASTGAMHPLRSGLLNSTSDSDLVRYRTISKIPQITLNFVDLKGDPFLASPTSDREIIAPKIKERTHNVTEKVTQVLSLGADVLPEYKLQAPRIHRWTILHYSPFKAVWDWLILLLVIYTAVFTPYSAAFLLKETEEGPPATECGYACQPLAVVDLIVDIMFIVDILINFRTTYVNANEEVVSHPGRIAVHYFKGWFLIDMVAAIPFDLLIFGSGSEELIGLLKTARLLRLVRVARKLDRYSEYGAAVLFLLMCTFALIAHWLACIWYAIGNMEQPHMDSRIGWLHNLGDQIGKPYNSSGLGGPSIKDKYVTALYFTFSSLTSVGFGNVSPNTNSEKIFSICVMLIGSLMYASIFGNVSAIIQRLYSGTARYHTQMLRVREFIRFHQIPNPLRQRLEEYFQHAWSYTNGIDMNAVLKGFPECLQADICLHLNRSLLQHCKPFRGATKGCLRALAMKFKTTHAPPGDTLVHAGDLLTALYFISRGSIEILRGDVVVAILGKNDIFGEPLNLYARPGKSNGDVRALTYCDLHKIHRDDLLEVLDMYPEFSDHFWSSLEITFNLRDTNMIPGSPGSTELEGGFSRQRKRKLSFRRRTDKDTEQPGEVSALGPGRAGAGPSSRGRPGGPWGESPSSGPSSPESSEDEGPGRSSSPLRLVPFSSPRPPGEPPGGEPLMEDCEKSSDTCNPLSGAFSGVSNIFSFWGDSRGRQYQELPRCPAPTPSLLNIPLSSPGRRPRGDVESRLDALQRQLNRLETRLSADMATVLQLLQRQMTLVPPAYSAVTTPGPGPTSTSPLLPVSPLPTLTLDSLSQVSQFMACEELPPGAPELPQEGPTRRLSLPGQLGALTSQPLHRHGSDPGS

Candida albicans [17] = test: Antifungal activity against fluconazole/ITC-resistant Candida albicans ATCC 64124 measured after 48 hrs by CLSI M27-A3 protocol based method; assay type: functional; conditions: ATCC 64124, 48 h
[18] = Selectivity index, ratio of CC50 for human A549 cells to MIC for fluconazole/ITC-resistant Candida albicans ATCC 10231; assay type: toxicity; conditions: read-out: Selectivity Index
[19] = Selectivity index, ratio of compound concentration showing <20 to <30% hemolysis in mouse RBC to MIC for fluconazole/ITC-resistant Candida albicans ATCC 64124; assay type: toxicity; conditions: red blood cells (erythrocytes), read-out: Selectivity Index
[20] = Selectivity index, ratio of compound concentration showing <20 to <30% hemolysis in mouse RBC to MIC for fluconazole/ITC-resistant Candida albicans ATCC 90819; assay type: toxicity; conditions: red blood cells (erythrocytes), read-out: Selectivity Index
Candida parapsilosis = test: Antifungal activity against Candida parapsilosis ATCC 22019 measured after 48 hrs by CLSI M27-A3 protocol based method; assay type: functional; conditions: Lodderomyces parapsilosis, ATCC 22019, 48 h
[21] = Selectivity index, ratio of CC50 for human A549 cells to MIC for fluconazole/ITC-susceptible Candida albicans ATCC MYA-2876; assay type: toxicity; conditions: read-out: Selectivity Index
[22] = Selectivity index, ratio of compound concentration showing <20 to <30% hemolysis in mouse RBC to MIC for Candida glabrata ATCC 2001; assay type: toxicity; conditions: mouse red blood cells (RBC), read-out: Selectivity Index
[23] = Selectivity index, ratio of CC50 for human A549 cells to MIC for fluconazole/ITC-resistant Candida albicans ATCC 90819; assay type: toxicity; conditions: read-out: Selectivity Index
[24] = Selectivity index, ratio of CC50 for human A549 cells to MIC for Candida krusei ATCC 6258; assay type: toxicity; conditions: read-out: Selectivity Index
Candida albicans [25] = test: Antifungal activity against fluconazole/ITC-resistant Candida albicans ATCC 90819 measured after 48 hrs by CLSI M27-A3 protocol based method; assay type: functional; conditions: ATCC 90819, 48 h
[26] = Selectivity index, ratio of compound concentration showing <20 to <30% hemolysis in mouse RBC to MIC for fluconazole/ITC-susceptible Candida albicans ATCC MYA-2310; assay type: toxicity; conditions: mouse red blood cells (RBC), read-out: Selectivity Index
Staphylococcus aureus = test: Antibacterial activity against methicillin-resistant Staphylococcus aureus; assay type: functional, organism-based
Candida albicans [27] = test: Antifungal activity against fluconazole/ITC-resistant Candida albicans ATCC MYA-1237 measured after 48 hrs by CLSI M27-A3 protocol based method; assay type: functional; conditions: ATCC MYA-1237, 48 h
Aspergillus terreus = test: Antifungal activity against Aspergillus terreus ATCC MYA-3633 measured after 48 hrs by CLSI M38-A2 protocol based method; assay type: functional; conditions: ATCC MYA-3633, 48 h
[28] = Selectivity index, ratio of CC50 for human A549 cells to MIC for Candida parapsilosis ATCC 22019; assay type: toxicity; conditions: read-out: Selectivity Index
BEAS-2B = test: Cytotoxicity against human BEAS2B cells after 24 hrs by resazurin based assay; assay type: cell-based
[29] = Selectivity index, ratio of compound concentration showing <20 to <30% hemolysis in mouse RBC to MIC for fluconazole/ITC-resistant Candida albicans ATCC MYA-1003; assay type: toxicity; conditions: mouse red blood cells (RBC), read-out: Selectivity Index
[30] = Hemolytic activity in mouse RBC at […] ug/ml after 1 hr relative to control; assay type: ADME, cell-based, Erythrocyte; conditions: red blood cells (erythrocytes), read-out: Activity
Aspergillus flavus = test: Antifungal activity against Aspergillus flavus ATCC MYA-3631 measured after 48 hrs by CLSI M38-A2 protocol based method; assay type: functional; conditions: ATCC MYA-3631, 48 h
[31] = Hemolytic activity in mouse RBC at […] after 1 hr relative to control; assay type: ADME, cell-based, Erythrocyte; conditions: red blood cells (erythrocytes), read-out: Activity; also: tested at 0.48 µg/mL
Aspergillus nidulans = test: Antifungal activity against Aspergillus nidulans ATCC 38163 measured after 48 hrs by CLSI M38-A2 protocol based method; assay type: functional; conditions: ATCC 38163, 48 h
Candida albicans [32] = test: Antifungal activity against fluconazole/ITC-susceptible Candida albicans ATCC MYA-2310 measured after 48 hrs by CLSI M27-A3 protocol based method; assay type: functional; conditions: ATCC MYA-2310, 48 h
[33] = Hemolytic activity in mouse RBC at 62.5 ug/ml after 1 hr relative to control; assay type: ADME, cell-based, Erythrocyte; conditions: red blood cells (erythrocytes), read-out: Activity
[34] = Selectivity index, ratio of CC50 for human A549 cells to MIC for Aspergillus nidulans ATCC 38163; assay type: toxicity; conditions: read-out: Selectivity Index
[35] = Selectivity index, ratio of CC50 for human A549 cells to MIC for Aspergillus flavus ATCC MYA-3631; assay type: toxicity; conditions: read-out: Selectivity Index
[36] = Selectivity index, ratio of compound concentration showing <20 to <30% hemolysis in mouse RBC to MIC for Candida krusei ATCC 6258; assay type: toxicity; conditions: mouse red blood cells (RBC), read-out: Selectivity Index
[37] = Selectivity index, ratio of compound concentration showing <20 to <30% hemolysis in mouse RBC to MIC for Aspergillus flavus ATCC MYA-3631; assay type: toxicity; conditions: mouse red blood cells (RBC), read-out: Selectivity Index
Candida albicans [38] = test: Antifungal activity against fluconazole/ITC-resistant Candida albicans ATCC MYA-1003 measured after 48 hrs by CLSI M27-A3 protocol based method; assay type: functional; conditions: ATCC MYA-1003, 48 h
[39] = Selectivity index, ratio of compound concentration showing <20 to <30% hemolysis in mouse RBC to MIC for fluconazole/ITC-resistant Candida albicans ATCC 10231; assay type: toxicity; conditions: red blood cells (erythrocytes), read-out: Selectivity Index
[40] = Selectivity index, ratio of CC50 for human A549 cells to MIC for fluconazole/ITC-resistant Candida albicans ATCC 64124; assay type: toxicity; conditions: read-out: Selectivity Index
[41] = Hemolytic activity in mouse RBC at 1.95 ug/ml after 1 hr relative to control; assay type: ADME, cell-based, Erythrocyte; conditions: red blood cells (erythrocytes), read-out: Activity

COc1ccc(N/N=C/c2ccc(-c3ccc(/C=N/Nc4ccc(OC)cc4)cc3)cc2)cc1
selectivity ratio [1]: 4 | selectivity ratio [2]: 2 | CC50 (A549): > 31 µg/mL | selectivity ratio [3]: 1 to 32 | selectivity ratio [4]: 1 to 32 | selectivity ratio [5]: 1 to 32 | selectivity ratio [6]: 1 to 32 | Activity (Listeria monocytogenes): inactive | selectivity ratio [7]: 1 to 32 | hemolysis at 1 h, 3.9 ug/ml [8]: 2.8% | selectivity ratio [9]: 8 | MIC (Candida albicans [10]): 7.8 µg/mL (≈ 17.3 µM) | MIC (Nakaseomyces glabratus): 7.8 µg/mL (≈ 17.3 µM) | selectivity ratio [11]: 4 | hemolysis at 1 h, 7.8 ug/ml [12]: 4.2% | MIC (Pichia kudriavzevii): 7.8 µg/mL (≈ 17.3 µM) | hemolysis at 1 h, 31.3 ug/ml [13]: 12.6% | MIC (Candida albicans [14]): 7.8 µg/mL (≈ 17.3 µM) | Activity (Enterococcus): inactive | selectivity ratio [15]: 1 | IC50 [16]: > 30 µM | MIC (Candida albicans [17]): 3.9 µg/mL (≈ 8.66 µM) | selectivity ratio [18]: 4 | selectivity ratio [19]: 1 to 32 | selectivity ratio [20]: 1 to 32 | MIC (Candida parapsilosis): 15.6 µg/mL (≈ 34.6 µM) | selectivity ratio [21]: 4 | selectivity ratio [22]: 1 to 32 | selectivity ratio [23]: 4 | selectivity ratio [24]: 4 | MIC (Candida albicans [25]): 7.8 µg/mL (≈ 17.3 µM) | selectivity ratio [26]: 1 to 32 | Activity (Staphylococcus aureus): inactive | MIC (Candida albicans [27]): 15.6 µg/mL (≈ 34.6 µM) | MIC (Aspergillus terreus): > 31.3 µg/mL | selectivity ratio [28]: 2 | CC50 (BEAS-2B): 16.4 µg/mL (≈ 36.4 µM) | selectivity ratio [29]: 1 to 32 | hemolysis at 1 h, 15.6 ug/ml ([30]; at 15.6 µg/mL): 6.7% | hemolysis at 1 h, 0.975 ug/ml [30]: 1.6% | MIC (Aspergillus flavus): > 31.3 µg/mL | hemolysis at 1 h, […] [31]: 1.2% | MIC (Aspergillus nidulans): 7.8 µg/mL (≈ 17.3 µM) | MIC (Candida albicans [32]): 3.9 µg/mL (≈ 8.66 µM) | hemolysis at 1 h, 62.5 ug/ml [33]: 22.7% | selectivity ratio [34]: 4 | selectivity ratio [35]: 1 | selectivity ratio [36]: 1 to 32 | selectivity ratio [37]: 1 to 32 | MIC (Candida albicans [38]): 7.8 µg/mL (≈ 17.3 µM) | selectivity ratio [39]: 1 to 32 | selectivity ratio [40]: 8 | hemolysis at 1 h, 1.95 ug/ml [41]: 1.9%
